Measured values: patent US6369109B1, “Betulinic acid and derivatives thereof useful for the treatment of neuroectodermal tumor” (Deutsches Krebsforschungszentrum Stiftung des Offentlichen …, priority 1998, dated 2002)

What was measured:
[1] = tested on: mitochondria isolated from SHEP cells; experiment: Mitochondrial membrane potential of isolated mitochondria (DiOC6(3)); type: biochemical, human; conditions: mitochondria from wild type or vector-only SHEP cells; 10 μg/ml betulinic acid, 30 min; FIG. 7, 12D
Experimental: For isolation of mitochondria, cells (3×10^5 per sample) were washed twice with ice-cold PBS and resuspended with five volumes of buffer A (50 mM Tris, 1 mM EGTA, 5 mM 2-mercaproethanol, 0.2% BSA, 10 mM KH2PO4, pH 7.6, 0.4 M sucrose) and allowed to swell on ice for 20 min. Cells were homogenized with 30 strokes of a Teflon homogenizer and centrifuged at 10000 g for 10 min at 4° C. The resulting pellets were resuspended in buffer B (10 mM KH2PO4, pH 7.2, […] mannitol, 0.1% BSA). Mitochondria were separated by sucrose gradient (lower layer: 1.6 M sucrose, 10 mM KH2PO4, pH 7.5, 0.1% BSA; upper layer: 1.2 M sucrose, 10 mM KH2PO4, pH 7.5, 0.1% BSA). Interphases containing mitochondria were washed with buffer B at 18000 g for 10 min at 4° C. and the resulting mitochondrial pellets were resuspended in buffer B. For preparation of cytosolic extracts, cells (1×10^8 per sample) were washed twice with ice-cold PBS, resuspended with one volume of buffer A and allowed to swell on ice for 20 min. Cells were homogenized with 30 strokes of a Dounce homogenizer and centrifuged at 15000×g for 15 min ax 4° C. The protein concentration of mitochondria or cytosolic extracts was determined by Bradford method (Bio-Rad). For isolation of nuclei, cells were washed twice in ice-cold PBS, resuspended in 10 volumes of buffer C (10 mM PIPES, pH 7.4, 10 mM KCl, 2 mM MgCl2, 1 mM DDT, 1 mM PMSF, 10 μM cytochalasin B), allowed to swell on ice for 20 min and homogenized using a Teflon homogenizer. Homogenates were layered over 30% sucrose in buffer C and centrifuged at 800 g for 10 min. The resulting nuclear pellets were resuspended in buffer C and washed three times. Nuclei were scored at −80° C. in aliquots of 10^8 nuclei/ml until required. AIF-containing mitochondrial supernatant was prepared as described in Susin et aL, 1997, J. Exp. Med. 186, 5-37 and Susin et al., 1996, J. Exp. Med. 184, 1331-41.
Mitochondria (5×10^5/ml) were treated with 10 μg/ml betulinic acid for 30 min, incubated with 3,3′-dihexyloxacarbocyanide iodide (DiOC6(3), 40 nM, Molecular Probes, Inc., Eugene, Oreg.) for 15 min at 37° C. and analyzed on a flow cytometer (FACS Vantage, Becton Dickinson). As a control, cells were treated with the uncoupling agent carbonyl cyanide m-chlorophenylhydrazone (mCICCP, 200 μM, Sigma).

[2] = tested on: SH-EP neuroblastoma cells; experiment: Specific apoptosis, FACS analysis of propidium iodide-stained nuclei; type: cell-based, human; conditions: 10 μg/ml antibody fragments 1 h before drug; 10 μg/ml betulinic acid, 50 μg/ml VP-16, 10 μg/ml cisplatinum, 0.5 μg/ml doxorubicin, 72 h; FIG. 3B
Experimental: Quantification of DNA fragmentation was performed by FACS analysis of propidium iodide stained nuclei as described in Nicoletti et al, 1991, J. Immunol. Methods. 139: 271-279. Cells were analyzed for DNA content by flow. cytometry (FACScan, Becton Dickinson, Heidelberg, Germany) using CELLQuest software. Early apoptotic changes were identified by staining with biotinylated annexin V (Bender Med Systems, Vienna, Austria) following the manufacturer's instructions. Annexin V binds to exposed phosphatidylserine on the surface of apoptotic cells. Koopman et al, 1994, Blood. 84:1415-1420. Cells were analyzed by flow cytometry (FAC-Scan. Becton Dickinson) using CELLQuest software.
Cells were treated with 10 μg/ml betulinic acid for 72 h. Apoptosis was assessed by FACS analysis of propidium iodide-stained nuclei. Percentage of specific apoptosis was calculated as follows: experimental apoptosis (%) −spontaneous apoptosis in medium (%)/[100%−spontaneous apoptosis in medium (%)]×100%. […]
Cells were incubated for indicated times with doxorubicin, betulinic acid or anti-APO-1 and harvested by trypsinization using 0.05% trypsin and 0.02% EDTA without Ca^2+and Mg^2+(Life Technologies, Inc.). Quantification of DNA fragmentation was performed by FACS analysis of propidium iodide stained nuclei as previously described in Nicoletti et al., J. ImmunoL Methods 139:271-279, using CELLQuest software (Becton Dickinson, Heidelberg, Germany).
(§1) SHEP cells transfected with Bcl-2 or BCl-XL or a neomycin resistance vector only (Neo) were treated with 0.5 μg/ml Doxorubicin or 10 μg/ml Betulinic acid for 48 h (A) or 24 h (B and C). Cells transfected with a neomycin resistance vector only (Neo) were treated in the presence or absence of 50 μm BA or 60 μm zVAD-fmk. Nuclear apoptosis was determined by FACS analysis or propidium iodide-stained DNA content in intact cells (A) or in a CFS incubating isolated nuclei with mitochondria from cells treated with Doxo or betulinic acid (C). ΔΨm was determined by staining cells with the potential-sensitive fluorochrome DiOC6(3) (B).

[3] = tested on: isolated nuclei with mitochondria from SHEP cells; experiment: Cell-free system of apoptosis: nuclear fragmentation of isolated nuclei; type: biochemical, human; conditions: for nuclear DNA fragmentation, mitochondria plus nuclei plus drug: Neo control mitochondria, 0.1-10 μg/ml betulinic acid or 5 mM atractyloside, 6 h, FIG. 8A, 8B
Experimental: (§2) For determination of nuclear fragmentation, nuclei (10^3/μl) were incubated with mitochondria (1 μg/μl) in buffer D (10 mM HEPES, pH 7.4, 50 mM NaCl, 2 mM MgCl2, 5 mM EGTA, 1 mM DDT, 2 mM ATP, 10 mM phosphocreatine, 50 μg/ml creatine kinase, 10 μM cytochalasin B) for 2 h at 37° C. Nuclei were stained with propidium iodide ([…]) and analyzed by flow cytometry. For determination of caspase activation, cytosolic extracts (2 μg/μl) were incubated with mitochondria (1 μg/μl), cytochrome c (0.1-100 μM) or AIF-containing mitochondrial supernatant (0.5 μg/μl) in buffer D for 2 h at 37° C. Partially purified AIF (cytochrome c-free) was prepared as previously described (0.5 mg/ml, Susin et al., 1997, J. Exp. Med. 186, 5-37; Susin et al., 1996, J. Exp. Med. 184, 1331-41). Proteins were separated by 15% SDS-PAGE and Western blot analysis was performed as described above.
Mitochondria isolated from SHEP cells, transfected with bcl-2 or bcl-XL or a neomycin resistance vector only, were incubated for 6 h with nuclei and 0.1-10 μg/ml betulinic acid (FIG. 8A) or 5 mM atractyloside (FIG. 8B) in the presence or absence of 50 μM bongkrekic acid or 60 μMZ-VAD-fnk. Nuclei incubated with either mitochondria from vector only cells or with betulinic acid were used as control. Nuclear apoptosis was determined by FACS analysis of propidium iodide stained DNA content.
SHEP cells transfected with bcl-2 or bcl-XL or a neomycin resistance vector only were treated with 10 μg/ml betulinic acid or 5 mM atractyloside for 6-24 h (FIG. 8C). Mitochondria were isolated and incubated with nuclei in the presence or absence of 50 μM bongkrekic acid or 60 μMZ-VAD-fmk. Nuclei incubated with either mitochondria front vector only cells or with betulinic acid were used as control. Nuclear apoptosis was determined by FACS analysis of propidium iodide stained DNA content.
Mitochondria isolated from SHEP cells transfected with bcl-2, Bcl-XL or a neomycin resistance vector only were treated with 10 μg/ml betulinic acid or 5 mM atractyloside for 0.5 h in the presence or absence of 50 μM bongkrekic acid or 60 μM zVAD-fmk. Mitochondrial supernatants obtained by high speed centrifugation were incubated with nuclei for 2 h at 37° C. Nuclei incubated with supernatants of untreated mitochondria were used as control.. Nuclear apoptosis was determined by FACS analysis of propidium iodide stained DNA content.
as §2, with “cytometry (Susin et al., 1997 Exp. Cell Res. 236:397-403).” for “cytometry.”, “(10” for “(0.1-100”, “C.” for “C. Partially purified AIF (cytochrome c-free) was prepared as previously described (0.5 mg/ml, Susin et al., 1997, J. Exp. Med. 186, 5-37; Susin et al., 1996, J. Exp. Med. 184, 1331-41).”, “before.” for “above.”
as §1

[4] = tested on: caspase-3, caspase-8 and PARP in cytosolic extracts of SHEP cells; experiment: Cell-free system of apoptosis: cleavage of caspases in cytosolic extracts by mitochondria; type: biochemical, human
Experimental: as §2, with “above. To confirm equal loading of mitochondrial protein, all Western blots were also developed with an antibody directed against a 60 kDa mitochondrial antigen (data not shown).” for “above.”
SHEP cells transfected with bcl-2 or Bcl-XL or a neomycin resistance vector only were treated with 10 μg/ml betulinic acid for 16 h. Mitochondria were isolated and incubated with cytosolic extracts for 6 h in the presence or absence of 60 μM zVAD-fmk (left panel, cells). Alternatively, mitochondria isolated from untreated cells were incubated with 10 μg/ml betulinic acid or 5 mM atractyloside together with cytosolic extracts for 6 h in the presence or absence of 60 μMZ-VAD-fmk (right panel, mitos, Atra). Cytosolic extracts incubated with mitochondria isolated from untreated cells or with untreated mitochondria were used as control. 40 μg protein per lane isolated front cell lysates were separated by 15% SDS-PAGE. Immunodetection of caspases-3, -8 and PARP protein was performed by mouse anti-caspase-3 mAb, mouse anti-caspase-8 mAb, rabbit anti-PARP polyclonal antibody and ECL.
SHEP cells treated with 10 μg/ml betulinic acid for indicated times. Mitochondria were isolated and incubated with cytosolic extracts for 6 h. Western blot analysis was performed as described above.
Mitochondria isolated from SHEP cells transfected with bcl-2 or Bcl-XL or a neomycrn resistance vector only were treated with 10 μg/ml betulinic acid or 5 mM atractyloside for 0.5 h in the presence or absence of 50 μM bongkrekic acid or 60 μM zVAD-fmk. Mitochondrial supernatants obtained by high speed centrifugation were incubated with cytosolic extracts for 6 h at 37° C. Cytosolic extracts incubated with supernatants of untreated mitochondria were used as control. Western blot analysis was performed as described for FIG. 9A.
as §2, with “cytometry (Susin et al., 1997 Exp. Cell Res. 236:397-403).” for “cytometry.”, “(10” for “(0.1-100”, “C.” for “C. Partially purified AIF (cytochrome c-free) was prepared as previously described (0.5 mg/ml, Susin et al., 1997, J. Exp. Med. 186, 5-37; Susin et al., 1996, J. Exp. Med. 184, 1331-41).”, “before.” for “above.”
SHEP cells transfected with Bcl-2 or Bcl-XL or a neomycin resistance vector only (Neo) were treated (Lanes+) with 0.5 μg/ml Doxo or 10 μg/ml Bet A for 16 h. Mitochondria were isolated and incubated with cytosolic extracts for 6 h. in the presence or absence of 60 μm Z-VAD.fmk. Western blot analysis was performed as described in FIG. 14A.

SMILES	Δψm of isolated mitochondria [1]	effect of CD95 blockage by F(ab′)2 anti-APO-1 on drug-induced apoptosis [2]	nuclear DNA fragmentation, mitochondria plus nuclei plus drug [3]	caspase cleavage in cytosolic extracts by supernatants from treated mitochondria ([4]; 10 μg/ml betulinic acid or 5 mM atractyloside 0.5 h, extracts 6 h, FIG. 10A)	caspase cleavage in cytosolic extracts by treated isolated mitochondria ([4]; 10 μg/ml betulinic acid or 5 mM atractyloside, 6 h, FIG. 9A)	DNA fragmentation by supernatants from treated mitochondria ([3]; 10 μg/ml betulinic acid or 5 mM atractyloside 0.5 h, supernatant with nuclei 2 h, FIG. 10B)
N.N.[Cl][Pt][Cl] [cisplatinum]	did not induce mitochondrial perturbations	markedly reduced	No DNA fragmentation was observed			
C=C1[C@@H]2CC[C@H]3[C@]4(C)C[C@H](O[C@@H]5O[C@H](CO)[C@@H](OS(=O)(=O)O)[C@H](OS(=O)(=O)O)[C@H]5OC(=O)CC(C)C)C[C@@H](C(=O)O)[C@H]4CC[C@]3(C2)[C@H]1O [atractyloside]			had the same effect as betulinic acid	caspase activation and nuclear fragmentation were observed	led to activation of caspases	caspase activation and nuclear fragmentation were observed
COc1cc([C@@H]2c3cc4c(cc3[C@@H](O[C@@H]3O[C@@H]5CO[C@@H](C)O[C@H]5[C@H](O)[C@H]3O)[C@H]3COC(=O)[C@H]23)OCO4)cc(OC)c1O [VP-16, etoposide]	did not induce mitochondrial perturbations	markedly reduced	No DNA fragmentation was observed			
